Source: patent publication US10265329B2, “Altering steroid metabolism for treatment of steroid-dependent disease” (THE CLEVELAND CLINIC FOUNDATION, priority 2015, dated 2019)
“Also recorded” adds a separate entry of the source.

Tests used:
human 3βHSD1 = target: T1, human 3βHSD1 (Homo sapiens, UniProt P14060); assay: Recombinant 3βHSD1 enzyme assay, [3H]-pregnenolone metabolism (Lineweaver-Burk); assay type: biochemical; details: pregnenolone substrate; D4A 5-20 μmol/L
T1 construct: made in house; host or cells: yeast (microsomes)
Method: To test D4A as an inhibitor of 3βHSD, enzyme assays were performed as described previously. Li et al., Clin Cancer Res. 18:3571-3579 (2012). Briefly, incubations were prepared with recombinant human 3βHSD1 or 3βHSD2 (in yeast microsomes, 45 or 2.5 μg protein per incubation, respectively), [^3H]-pregnenolone (100,000 cpm, 1-20 μmol/L), and D4A (5-20 μmol/L) or ethanol vehicle in 0.5 mL of potassium phosphate buffer (pH 7.4). After a pre-incubation at 37° C. for 1 to 3 min, NAD (1 mmol/L) was added, and the incubation was conducted at 37° C. for 20 min. The reaction was stopped by addition of 1 mL ethyl acetate:isooctane (1:1), and the steroids were then extracted into the organic phase and dried. The steroids in the dried extracts were resolved by HPLC and quantitated by in-line scintillation counting

[1] = system: PSA, TMPRSS2 and FKBP5 expression; assay: Inhibition of androgen-responsive gene expression (qPCR); assay type: cell-based, human
Method: Cells were starved with phenol red-free and serum free-medium for at least 48 h and treated with the indicated drugs and/or androgens. RNA was extracted with a GenElute Mammalian Total RNA miniprep kit (Sigma-Aldrich). cDNA was synthesized from 1 μg RNA in a reverse transcription reaction using the iScript cDNA Synthesis Kit (Bio-Rad, Hercules, Calif.). Quantitative PCR (qPCR) analysis was conducted in triplicate with primers for PSA, TMPRSS2, FKBP5, and RPLPO described previously (Chang et al., Cell, 154:1074-1084 (2013), with an ABI 7500 Real-Time PCR machine (Applied Biosystems) using iTaq Fast SYBR Green Supermix with ROX (Bio-Rad) in 96-well plates at a final reaction volume of 20 μL. Accurate quantitation of each mRNA was achieved by normalizing the sample values to RPLPO and to vehicle-treated cells.

LNCaP cells = assay: Cell proliferation assay, DHT-stimulated growth; assay type: cell-based, human; details: DHT 0.5 nM, 2, 4 and 6 days
Method: LNCaP cells (0.1 million/mL) were seeded in 96-well plates and cultured in phenol red free RPMI-1640 mediums plus 10% charcoal stripped FBS with androgens and/or drugs. Medium was changed every other day. After 2, 4 or 6 days, cells were collected and lysed after treatment. Growth was then determined based on DNA content as detected by Hoechst stain and a Wallac Victor2 1420 Multilabel counter (Perkin Elmer). Two-tailed student's t-test was used to determine significance.

3βHSD = target: T2, 3βHSD (Homo sapiens, UniProt P14060); assay: Xenograft metabolism: [3H]-DHEA to AD in minced xenograft tumors; details: LNCaP and VCaP xenografts, 0.1-10 μM
T2 construct: endogenous in cells; host or cells: LNCaP, VCaP
T2 sequence (P14060 2-373 limits assumed): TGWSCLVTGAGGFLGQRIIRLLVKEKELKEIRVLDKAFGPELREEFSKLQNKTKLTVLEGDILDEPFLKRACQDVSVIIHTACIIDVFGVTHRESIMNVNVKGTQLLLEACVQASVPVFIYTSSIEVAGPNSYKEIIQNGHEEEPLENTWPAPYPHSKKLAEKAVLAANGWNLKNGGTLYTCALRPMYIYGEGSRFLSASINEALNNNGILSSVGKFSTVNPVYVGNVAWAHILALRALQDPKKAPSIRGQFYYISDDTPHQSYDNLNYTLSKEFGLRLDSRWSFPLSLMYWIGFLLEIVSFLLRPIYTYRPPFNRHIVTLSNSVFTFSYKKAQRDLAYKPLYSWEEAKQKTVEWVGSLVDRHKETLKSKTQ
Method: Cell Line Metabolism: Cells were seeded and incubated in 12-well plates with 0.2 million cells/well for ˜24 h and then incubated with a mixture of radioactive ([^3H]-labeled) and non-radioactive androgens (final concentration, 100 nM; ˜1,000,000 cpm/well; PerkinElmer, Waltham, Mass.) at 37° C. Aliquots of medium were collected at the indicated times. Collected medium was treated with 1,000 units of β-glucuronidase (Helix pomatia; Sigma-Aldrich) at 65° C. for 2 h, extracted with 860 μL ethyl acetate:isooctane (1:1), and concentrated under nitrogen gas. Xenograft Metabolism: 10^7 LNCaP or VCaP cells were injected subcutaneously with Matrigel into surgically orchiectomized NSG mice that were implanted with 5 mg 90-day sustained-release DHEA pellets (Innovative Research of American, Sarasota, Fla.). […] Each xenograft was analyzed in triplicate in at least three independent experiments. […]
Dried samples were reconstituted in 50% methanol and injected into the HPLC. […] Alternatively, dried samples were applied to plastic-backed silica gel plates and separated by thin-layer chromatography (TLC) using a mobile phase of 3:1 chloroform:ethyl acetate, followed by exposure of the plates to a phosphorimager screen and quantitated with a Storm model 860 phosphorimager (Applied Biosystems, Foster City, Calif.). […]

[2] = Abi conversion to D4A in mouse serum after Abi acetate; assay type: in vivo; details: mice administered Abi acetate i.p.
Method: FIG. 1A-FIG. 1E provides chemical structures and graphs showing the structural consequences of the conversion from Abi to D4A that occurs in both mice, and patients, and requires 3βHSD. A, Schematic of Abi conversion to D4A. * double bond and C3-position for substrates and products of 3βHSD. B, Abi is converted to D4A in vivo. Abi acetate was injected i.p. in 5 mice. Blood was collected 2 h and 4 h after injection. Serum concentrations of Abi and D4A were quantified by mass spectrometry and are represented as the percentage of the sum total of Abi+D4A. C, D4A is detectable in all patients (n=12) with CRPC treated with Abi acetate. D, Representative mass spectrometry tracing of D4A and Abi from the serum of a patient treated with Abi acetate. E, 3βHSD1 is capable of converting Abi to D4A. LAPC4 cells overexpressing 3βHSD1 were treated with 10 μM Abi (or [^3H]-DHEA) for 24 h. Abi, D4A (as a percentage of Abi+D4A), [^3H]-DHEA and [^3H]-DHEA metabolites (labeled metabolites), were separated by HPLC. Results are shown as mean (n=3)±s.d. with biological replicates. The experiment was repeated independently at least 3 times.

T1 sequence (P14060 whole entry): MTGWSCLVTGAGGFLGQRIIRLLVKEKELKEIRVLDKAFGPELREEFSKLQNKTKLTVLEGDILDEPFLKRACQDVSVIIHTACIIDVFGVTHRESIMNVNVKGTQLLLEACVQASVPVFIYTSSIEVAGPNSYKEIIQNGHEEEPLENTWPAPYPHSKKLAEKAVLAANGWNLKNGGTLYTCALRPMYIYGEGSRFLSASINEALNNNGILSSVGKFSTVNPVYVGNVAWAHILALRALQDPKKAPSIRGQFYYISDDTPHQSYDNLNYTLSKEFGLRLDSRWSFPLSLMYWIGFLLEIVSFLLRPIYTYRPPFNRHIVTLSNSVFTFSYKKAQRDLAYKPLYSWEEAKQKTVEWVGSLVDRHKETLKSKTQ

C[C@]12CCC(=O)C=C1CC[C@@H]1[C@@H]2CC[C@]2(C)C(c3cccnc3)=CC[C@@H]12 [Compound D4A, 17-(3-Pyridyl)androsta-4,16-dien-3-one]
type of inhibition of 3βHSD1 (human 3βHSD1): mixed competitive-noncompetitive inhibition; also recorded: mixed inhibition kinetics
suppression of PSA, TMPRSS2 and FKBP5 expression compared to Abi ([1]; induced by DHT, DHEA and R1881, LNCAP, LAPC4 and C4-2 cell lines): clearly better suppresses
inhibition of DHT-induced endogenous PSA expression ([1]; mutant and wild-type AR (LNCaP and LAPC4)): equivalent to enzalutamide
effect on DHT-stimulated cell growth (LNCaP cells): more potent than Abi
potency relative to Abi in blocking conversion from DHEA by 3βHSD to AD (3βHSD): 10 fold
detection in sera of mice [2]: detectable
